Article PMC12521527, “In vivo self-assembled nano-PROTAC for the dual degradation of AR and HSP90 to overcome castration-resistant prostate cancer resistance” (Signal Transduction and Targeted Therapy, 2025)
Numbered stars: 1 amine (or outer) side, 2 acyl side, 3 side chain; on linkers, the order of the positions; unused ones are H or OH. Square brackets hold non-standard residues; d marks the D form. Peptide text beside a SMILES is read from it. * marks the point of attachment. X2 = CC1(C)C(=O)N(c2ccc(C#N)c(C(F)(F)F)c2)C(=S)N1c1ccc(C(=O)*)c(F)c1; X1 = O=C1CCC(N2C(=O)c3cccc(N(CC(=O)[*:2])[*:1])c3C2=O)C(=O)N1; EuK = O=C(O)CC[C@H](NC(=O)N[C@@H](CCCCN*)C(=O)O)C(=O)O; 2Nal = N[C@@H](Cc1ccc2ccccc2c1)C(=O)O

Key:
[1] = In vivo and ex vivo fluorescence imaging (biodistribution); set-up: species or system BALB/c nude mice; conditions: Cy7-labeled, 30 mg/kg intravenous
Experimental: Fig. 5 In vivo evaluation of Psa-AR enrichment and retention. a Representative immunohistochemical (IHC) staining of PSMA and AR expression in tumor tissues from three patients with prostate cancer before and after androgen deprivation therapy. The expression levels of PSMA and AR were assessed in serial sections at identical locations. Scale bars: 40 μm. b In vivo fluorescence images of 22Rv1 xenograft mice after treatment with Cy7-labeled P-AR and Psa-AR (30 mg/kg in 200 μL of PBS) for 2 h and 24 h. c Biodistribution in the tumors and main organs of 22Rv1 xenograft mice after injection with Cy7-labeled Psa-AR (30 mg/kg in 200 μL of PBS) for 24 h. (H Heart, Li Liver, Sp Spleen, Lu Lung, Ki Kidney, T Tumor). d Quantitative analysis of the fluorescence images in (c), n = 3 per group
BALB/c nude mice (6–8 weeks old, 16–18 g) were housed in a specific-pathogen-free (SPF) environment. All experiments were conducted in accordance with the Guidelines for the Management and Use of Laboratory Animals and were approved by the Animal Research Committee of the National Center for Nanoscience and Technology (NCNST 21-202503-0020). […] For ex vivo fluorescence imaging, 22Rv1 xenograft mice were intravenously injected with Cy7-labeled Psa-AR (30 mg/kg in 200 µL of PBS) and sacrificed 24 h post-injection to excise major organs (heart, liver, spleen, lung, and kidney) and tumors.

AR protein = biological target: T1, AR protein (Homo sapiens, UniProt P10275); assay: MST binding affinity, Psa-AR and AR protein; conditions: RED-NHS-labeled AR 400 nM, PBS-T, 22 °C, n = 3, read-out: Kd, binding affinity between Psa-AR and AR
T1 sequence (P10275 1-920): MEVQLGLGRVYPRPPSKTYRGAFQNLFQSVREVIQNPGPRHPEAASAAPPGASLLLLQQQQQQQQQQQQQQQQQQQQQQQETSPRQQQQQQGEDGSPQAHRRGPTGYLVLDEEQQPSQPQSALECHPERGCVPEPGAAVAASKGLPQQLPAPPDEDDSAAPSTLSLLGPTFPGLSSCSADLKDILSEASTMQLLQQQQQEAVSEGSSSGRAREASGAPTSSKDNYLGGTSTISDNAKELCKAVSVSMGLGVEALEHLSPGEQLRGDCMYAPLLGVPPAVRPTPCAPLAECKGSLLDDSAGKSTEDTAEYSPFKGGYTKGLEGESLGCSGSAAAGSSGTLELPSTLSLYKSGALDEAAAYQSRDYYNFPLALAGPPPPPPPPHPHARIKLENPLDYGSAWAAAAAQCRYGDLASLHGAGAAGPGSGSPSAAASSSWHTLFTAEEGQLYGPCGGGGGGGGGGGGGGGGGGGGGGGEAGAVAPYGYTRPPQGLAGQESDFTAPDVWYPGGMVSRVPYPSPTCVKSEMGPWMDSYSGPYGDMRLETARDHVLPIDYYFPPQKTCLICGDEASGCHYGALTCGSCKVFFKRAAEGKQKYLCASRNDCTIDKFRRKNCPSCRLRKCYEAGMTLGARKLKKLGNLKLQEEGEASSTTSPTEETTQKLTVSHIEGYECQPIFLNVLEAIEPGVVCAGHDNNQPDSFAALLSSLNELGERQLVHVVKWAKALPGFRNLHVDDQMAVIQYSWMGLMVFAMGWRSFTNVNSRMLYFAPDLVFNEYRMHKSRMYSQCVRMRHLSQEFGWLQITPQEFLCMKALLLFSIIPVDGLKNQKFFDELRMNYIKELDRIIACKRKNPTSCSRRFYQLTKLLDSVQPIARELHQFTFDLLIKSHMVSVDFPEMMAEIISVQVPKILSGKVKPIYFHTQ
Source text: (§1) Fig. 3 Polynary nanocomposite (AR: Psa-AR: CRBN) formation. a Dose‒response curve for the binding interaction between Psa-AR and the AR protein; n = 3 per group. b Dose‒response curve for the binding interaction between Psa-AR and the CRBN protein; n = 3 per group. c Dose‒response curve for the binding interaction between the binary complex (Psa-AR: AR) and CRBN, n = 3 per group. d In vitro Psa-AR self-assembly, protein binding and degradation. e Representative 22Rv1 cell CLSM images of FITC-labeled Psa-AR assembly (green channel) interacting with HSP90 (red channel) and its colocalization analysis (1–1’). […] Scale bar: 10 μm.
(§2) MST (NanoTemper Technologies GmbH, Munich, Germany) was utilized to evaluate the binding affinity between Psa-AR and RED-NHS-labeled PSMA, AR, or CRBN proteins. The PSMA, AR, and CRBN proteins were labeled with the Protein Labeling Kit RED-NHS 2nd Generation (Amine Reactive). RED-PSMA, RED-AR, and RED-CRBN proteins were diluted to a final concentration of 400 nM with PBS-T buffer (0.05% Tween 20), where the fluorescence signals satisfied the typical detection limit of the Monolith NT.115 instrument (NanoTemper Technologies). The binding affinity between Psa-AR and the RED-NHS-labeled AR protein was assessed. […] Then, 10 µL of RED-CRBN was added to each sample to achieve a final concentration of 400 nM. […] The data were analyzed by NanoTemper analysis software.

[2] = biological target: CRBN, with prebound AR (AR: Psa-AR: CRBN) (Homo sapiens, UniProt P10275+Q96SW2); assay: MST binding of binary complex (Psa-AR: AR) to CRBN; conditions: binary complex Psa-AR: AR titrated against RED-CRBN 400 nM, 20 min incubation, 22 °C, n = 3, read-out: Kd, affinity for CRBN in the presence of prebound AR
Chain of CRBN, with prebound AR (AR: Psa-AR: CRBN) (Q96SW2 whole entry, one chain of several): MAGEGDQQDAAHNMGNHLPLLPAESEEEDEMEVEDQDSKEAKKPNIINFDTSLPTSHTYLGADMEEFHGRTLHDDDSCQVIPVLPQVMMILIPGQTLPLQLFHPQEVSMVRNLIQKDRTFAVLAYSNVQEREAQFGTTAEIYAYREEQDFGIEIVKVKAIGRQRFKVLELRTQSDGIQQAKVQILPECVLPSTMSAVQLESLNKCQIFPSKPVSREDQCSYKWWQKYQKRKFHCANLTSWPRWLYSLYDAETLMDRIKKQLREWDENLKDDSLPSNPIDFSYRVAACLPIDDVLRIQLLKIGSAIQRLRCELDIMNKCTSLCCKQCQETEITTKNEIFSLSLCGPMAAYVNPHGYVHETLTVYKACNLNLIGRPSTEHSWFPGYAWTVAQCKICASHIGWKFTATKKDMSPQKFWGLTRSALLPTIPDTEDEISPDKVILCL
Source text: as §1, §2

[3] = Cellular cytotoxicity, LNCaP; format: cell-based; conditions: human, LNCaP cells

## CC1(C)C(=O)N(c2ccc(C#N)c(C(F)(F)F)c2)C(=S)N1c1ccc(C(=O)NCCCC[C@H](NC(=O)CNc2cccc3c2C(=O)N(C2CCC(=O)NC2=O)C3=O)C(=O)N[C@@H](CS)C(=O)N[C@@H](CCC(N)=O)C(=O)N[C@@H](Cc2ccc(O)cc2)C(=O)N[C@@H](CC(N)=O)C(=O)N[C@@H](CCC(N)=O)C(=O)N[C@@H](Cc2ccc(O)cc2)C(=O)N[C@@H](Cc2ccc(O)cc2)C(=O)N[C@@H](Cc2ccc3ccccc3c2)C(=O)NCCCC[C@H](NC(=O)N[C@@H](CCC(=O)O)C(=O)O)C(=O)O)c(F)c1 (some centres unmarked) [Psa-AR] (H-[X1]K(X2)CQYNQYY[2Nal]-EuK)
[1]; 2 h, 22Rv1 xenograft mice
  tumor deposition relative to P-AR: 4 fold
[1]; 24 h
  tumor retention, residual signal at 24 h: 78%
AR protein
  Kd: 950 nM
[2]
  Kd: 1140 nM
[3]
  IC50: 11100 ± 1400 nM
